Laboratory results from patent publication US20160346356A1, “USE OF RNA INTERFERENCE, FARNESOIC ACID AND RECOMBINANT PROTEIN APPROACH TO INDUCE GONAD MATURATION IN CRUSTACEAN SPECIES” (priority 2013, published 2016).
Read-outs that look alike come from different tables or passages of the source.

How the values were obtained:
HaVg1 gene expression = conditions: hepatopancreas explant, cited from earlier work
gonad maturation = assay: Example 2: FA injection into female shrimp, gonadosomatic index; type: in vivo; conditions: FA 1 μg/g of body weight, day 6
Description: Farnesoic acid (FA) is known to be able to stimulate vitellogenin synthesis in crab, shrimp and lobster. Stock of FA is prepared in ultra-pure mineral oil and female shrimp will be injected with FA.
Fifty female shrimp are injected with FA through the arthropodial membrane (e.g. at 1 μg/g of body weight) 1 day after they molt. After injection, the shrimp is returned to the culture tank for culture. A group of 10 shrimps are randomly selected at a 24-hour interval. 50 μl of hemolymph sample will be taken from the shrimps for analyzing the vitellogenin level by ELISA. On day 6, all the shrimps will be sacrificed and their ovary will be weighted for estimating the gonadosomatic index (GSI), which is the ratio of ovary weight to total body weight. A control group is also setup in which the shrimps are injected with the same volume of mineral oil without any FA. Shrimps injected with FA should have a higher ovary weight to total shrimp weight than the control.

[1] = tested on: expression of vitellogenin; conditions: red crab; cited from earlier work

SMILES | increase in HaVg1 gene expression (HaVg1 gene expression; 0.7 μM 20E) | ovary weight to total shrimp weight (GSI) versus control (gonad maturation) | increase in HaVg1 gene expression (HaVg1 gene expression; 4.2 μM FA) | expression of vitellogenin [1]
CC(C)(O)CC[C@@H](O)[C@](C)(O)[C@H]1CC[C@@]2(O)C3=CC(=O)[C@@H]4C[C@@H](O)[C@@H](O)C[C@]4(C)[C@H]3CC[C@]12C [20E, 20-hydroxyecdysone] | 2.2 fold | – | – | –
CC(C)=CCCC(C)=CCCC(C)=CC(=O)O [FA, farnesoic acid] | – | higher | 2 fold | stimulate
